Data on nine compounds can be found in PubChem BioAssay (NCI).

Holding throughout (assay): NCI anticancer screen, dose series, 48 h
Assay [1] deals with COLO 205 colon.
The test system of assay [2] is KM12 colon.
The test system of assay [3] is A549 NSCLC.
Assay [4] has as its system SNB-75 CNS.
For assay [5], the system named is SK-MEL-2 melanoma.
The subject of assay [6] is SF-268 CNS.
The test system of assay [7] is SF-539 CNS.
The subject of assay [8] is HCC-2998 colon.
The subject of assay [9] is TK-10 renal.
Assay [10] deals with 786-0 renal.

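48-hour exposure; five concentrations; linearly interpolated endpoints. GI50 marks 50% less growth. TGI denotes the concentration required for complete inhibition of growth.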

Take `Cc1ccc2nc(-c3ccc(N(C)C)c(Br)c3)cn2c1`: the GI50 in assay [1] was > 100 µM; in assay [2], 54.1 µM; in assay [3], > 100 µM; in assay [4], 31.3 µM; in assay [5], > 100 µM; in [6], 8.09 µM. Further, the GI50 in assay [7] was 8.14 µM; in assay [8], > 100 µM; in [9], > 100 µM; in [10], > 100 µM. Further, the TGI in assay [1], in [2], in assay [3], in assay [4], in assay [5] and in [6] was > 100 µM in each case. Moreover, the TGI in [7], in assay [8], in [9] and in assay [10] was > 100 µM each time.
Regarding `COC(=O)C(=O)C(C(=O)C(=O)Nc1cccc(C(C)=O)c1)c1nc2ccccc2[nH]c1=O` (centres undefined), the TGI in [1], in assay [2], in [3], in assay [4], in assay [5] and in assay [6] was > 100 µM throughout. Moreover, the TGI in assay [7], in assay [8], in assay [9] and in [10] was > 100 µM each time.
Take `O=c1cccc(C2CC(CO)C3CCCCN3C2)[nH]1` (centres undefined): the TGI in [1], in assay [2], in assay [3], in assay [4], in assay [5] and in assay [6] was > 100 µM throughout. The TGI in assay [7], in assay [8], in assay [9] and in [10] was > 100 µM each time.
For the compound `Fc1cc2[nH]ncc2c2c3c(c(-c4cn[nH]c4C(F)(F)F)nc12)C1CCC3C1` (centres undefined), the GI50 in [1] was 0.874 µM; in assay [2] it was 0.656 µM; in assay [3] it was 1.07 µM; in assay [4], 0.945 µM; in assay [5] it was 1.57 µM; in assay [6], 1.16 µM. Further, the GI50 in [7] is 0.82 µM; in assay [8] it was 1.38 µM; in assay [9] it was 0.744 µM; in assay [10], 1.19 µM. The TGI in assay [1] worked out at 2.24 µM; in [2] it was 6.3 µM; in assay [3] it was 4.41 µM; in assay [4] it was 2.93 µM; in assay [5] it was 4.2 µM; in assay [6] it was 4.64 µM. Besides, the TGI in assay [7] stood at 2.1 µM; in assay [8], 5.57 µM; in [9] it was 4.08 µM; in [10] it was 5.27 µM.
Regarding `O=[N+]([O-])c1cnn(C2=CNc3ccccc3N=C2)c1`, the TGI in assay [1], in assay [3], in assay [4], in assay [5], in assay [6] and in assay [7] was > 100 µM throughout. Moreover, the TGI in assay [8], in assay [9] and in assay [10] was > 100 µM throughout.
Consider `O=C(c1ccncc1)n1nc(-c2ccccc2)c(N=Nc2ccccc2[N+](=O)[O-])c1-c1ccccc1`, for which the TGI in assay [1], in [2], in assay [3], in assay [4], in [5] and in assay [6] was > 100 µM in each case. Moreover, the TGI in assay [7], in [8], in [9] and in assay [10] was > 100 µM throughout.
With `Cc1cc2c(cc1Cl)SC1=NN(C)C(N(C)C)N1S2(=O)=O` (centres undefined), the GI50 in assay [1] is > 100 µM; in assay [2] it was > 100 µM; in assay [3] it was > 100 µM; in assay [4], 86.4 µM; in assay [5] it was > 100 µM; in assay [6], > 100 µM. Besides, the GI50 in [7], in [8], in [9] and in assay [10] was > 100 µM throughout. In addition, the TGI in assay [1], in assay [2], in assay [3], in assay [4], in [5] and in assay [6] was > 100 µM throughout. Besides, the TGI in assay [7], in [8], in assay [9] and in assay [10] was > 100 µM each time.
Turning to `CCOc1cc(/C=N\Nc2nnc(C)n2N)c(C)cc1N(CCCl)CCCl`, the GI50 is 0.375 µM in [1]; 0.897 µM in assay [2]; 0.638 µM in [3]; 0.692 µM in assay [4]; 2.11 µM in assay [5]; 1.97 µM in assay [6]. For the same compound, the GI50 was 1.29 µM in assay [7], 1.45 µM in [8], 1.97 µM in assay [9] and 1.51 µM in [10]. In addition, the TGI is 1.89 µM in [1]; 19.9 µM in assay [2]; > 20.6 µM in assay [3]; 6.5 µM in assay [4]; 5.33 µM in [5]; > 92.6 µM in assay [6]. Besides, the TGI is 17.4 µM in assay [7], 16 µM in [8], 51.4 µM in assay [9] and 23.2 µM in assay [10].
For `CC[O-].CC[O-].O=S(=O)([O-])c1ccc([O-])c2ncccc12.O=S(=O)([O-])c1ccc([O-])c2ncccc12.[Ti+4]`, the GI50 was 83.2 µM in assay [1]; 96.5 µM in [2]; 39.1 µM in assay [3]; 72.8 µM in assay [4]; > 100 µM in [5]; 42.1 µM in [6]. Besides, the GI50 in assay [7] is 67.9 µM; in assay [8] it was 68.2 µM; in assay [9], > 100 µM; in [10], 49 µM. Besides, the TGI in assay [1], in [2], in assay [3], in assay [4], in assay [5] and in assay [6] was > 100 µM throughout. The TGI in assay [7], in assay [8], in assay [9] and in [10] was > 100 µM throughout.
